For one test, the system named is NCI-H1694. Nature of the test: cells. As to conditions: Homo sapiens, NCI-H1694. It counts as functional, cell-based, Homo sapiens.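 Further: cell viability assay measuring inhibition of growth in human NCI-H1694 cells.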
For a further test, the system named is SNU-C1. The test is described as follows: cells. It counts as functional, cell-based, Homo sapiens. As to conditions: Homo sapiens, SNU-C1.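 Further: growth inhibition of SNU-C1 human cells, read out by a cell viability assay.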
The subject of the next test is NCI-H716. Nature of the test: cells. Type of test: functional, cell-based, Homo sapiens. Conditions: Homo sapiens, NCI-H716.
A further test has as its system NCCIT. Nature of the test: SANGER: Inhibition of human NCCIT cell growth in a cell viability assay. Type of test: functional, cell-based. Conditions: Homo sapiens, NCCIT.
Another test has as its system NCI-H1882. The test is described as follows: cells. Type of test: functional, cell-based, Homo sapiens. As to conditions: Homo sapiens, NCI-H1882.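 Further: growth inhibition of the cell line, determined with a viability assay.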
The next test deals with L-540. The test is described as follows: cells. Type of test: functional, cell-based, Homo sapiens. Conditions: Homo sapiens, L-540.
In the next test the test system is SK-MM-2. The test is described as follows: cells. It counts as functional, cell-based, Homo sapiens. As to conditions: Homo sapiens, SK-MM-2.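 Further: growth inhibition of human SK-MM-2 cells, read out with a cell viability assay.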
The next test relates to NCI-H1963. The test is described as follows: cells. It counts as functional, cell-based, Homo sapiens. As to conditions: Homo sapiens, NCI-H1963.
A further test concerns NCI-H524. The test is described as follows: cells. It counts as functional, cell-based, Homo sapiens. Conditions: Homo sapiens, NCI-H524.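 Further: growth inhibition of human NCI-H524 cells, read out through a cell viability assay.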
The test system of another test is OPM-2. Nature of the test: cells. Type of test: functional, cell-based, Homo sapiens. Conditions: Homo sapiens, OPM-2.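 Further: growth of OPM-2 cells measured with a viability assay, IC50 for suppression of proliferation.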

A value given as a limit tells only on which side of the number the result lay.

Description for L-540: SANGER: Inhibition of human L-540 cell growth in a cell viability assay.
Description for NCI-H1694: SANGER: Inhibition of human NCI-H1694 cell growth in a cell viability assay.
Description for NCI-H1882: SANGER: Inhibition of human NCI-H1882 cell growth in a cell viability assay.
Description for NCI-H1963: SANGER: Inhibition of human NCI-H1963 cell growth in a cell viability assay.
Description for NCI-H524: SANGER: Inhibition of human NCI-H524 cell growth in a cell viability assay.
Description for NCI-H716: SANGER: Inhibition of human NCI-H716 cell growth in a cell viability assay.
Description for OPM-2: SANGER: Inhibition of human OPM-2 cell growth in a cell viability assay.
Description for SK-MM-2: SANGER: Inhibition of human SK-MM-2 cell growth in a cell viability assay.
Description for SNU-C1: SANGER: Inhibition of human SNU-C1 cell growth in a cell viability assay.

In general, IC50 refers to the concentration that gives 50% inhibition. `COc1cc(N2CCN(C)CC2)ccc1Nc1ncc2c(n1)N(C)c1ccccc1C(=O)N2C`: the half-maximal inhibitory concentration (IC50) in the test with NCI-H1694 is over 8 µM; in the test on SNU-C1, over 8 µM; with NCI-H716, over 8 µM; with NCCIT it was 4.15 µM; with NCI-H1882 it was over 8 µM; in the test with L-540 it was over 8 µM. In addition, the 50% inhibitory concentration (IC50) in the test with SK-MM-2 was 2.59 µM; with NCI-H1963, over 8 µM; with NCI-H524 it was over 8 µM; in the test on OPM-2, 3.3 µM.
Consider `COc1cc(-c2nn([C@H]3CC[C@H](N4CCN(C(C)=O)CC4)CC3)c3ncnc(N)c23)ccc1NC(=O)c1cc2ccccc2n1C`, for which the IC50 in the test with NCI-H1694, in the test on SNU-C1, in the test on NCI-H716, in the test with NCCIT, in the test on NCI-H1882 and in the test on L-540 was over 5.12 µM throughout. Besides, the IC50 with SK-MM-2, in the test with NCI-H1963, in the test on NCI-H524 and in the test with OPM-2 was over 5.12 µM in each case.
`OCCCNc1cc(-c2ccnc(Nc3cccc(Cl)c3)n2)ccn1`: the IC50 in the test on NCI-H1694 is over 0.256 µM; in the test with SNU-C1, over 0.256 µM; in the test with NCI-H716, over 0.256 µM; with NCCIT it was 0.0485 µM; with NCI-H1882, over 0.256 µM; in the test on L-540, 0.193 µM. The IC50 in the test with SK-MM-2 is 0.124 µM; with NCI-H1963 it was 0.0931 µM; in the test on NCI-H524, over 0.256 µM; in the test with OPM-2, 0.153 µM.
For `Cc1ccc(-c2c(C(=O)CCl)n(CCCO)c3ncnc(N)c23)cc1`, the half-inhibitory concentration (IC50) in the test with NCI-H1694, with SNU-C1, in the test with NCI-H716, with NCCIT, in the test with NCI-H1882 and in the test with L-540 was over 4 µM throughout. In addition, the concentration for half-maximal inhibition (IC50) in the test with SK-MM-2, in the test on NCI-H1963, in the test with NCI-H524 and in the test with OPM-2 was over 4 µM throughout.
As to `C#Cc1cccc(Nc2ncnc3cc(OCCOC)c(OCCOC)cc23)c1` [ERLOTINIB], the IC50 with NCI-H1694, with SNU-C1, in the test with NCI-H716, in the test with NCCIT, in the test on NCI-H1882 and with L-540 was over 2 µM in each case. Moreover, the IC50 in the test on SK-MM-2, with NCI-H1963, in the test on NCI-H524 and in the test with OPM-2 was over 2 µM each time.
In the case of `COc1cc2ncn(-c3cc(OCc4ccccc4S(C)(=O)=O)c(C#N)s3)c2cc1OC` [GSK-319347A], the IC50 in the test on NCI-H1694, with SNU-C1, in the test on NCI-H716, in the test with NCCIT, with NCI-H1882 and with L-540 was over 5 µM each time. Also, the 50% inhibitory concentration (IC50) in the test with SK-MM-2, in the test with NCI-H1963, with NCI-H524 and in the test on OPM-2 was over 5 µM each time.
For the compound `COc1cc2ncn(-c3cc(OCc4ccccc4C(F)(F)F)c(C(N)=O)s3)c2cc1OC` [GW843682X], the concentration for half-maximal inhibition (IC50) was 0.042 µM with NCI-H1694; over 0.256 µM with SNU-C1; over 0.256 µM in the test with NCI-H716; 0.0599 µM in the test with NCCIT; 0.0437 µM in the test on NCI-H1882; 0.121 µM with L-540. Moreover, the IC50 with SK-MM-2 is over 0.256 µM; with NCI-H1963, 0.0138 µM; with NCI-H524, 0.0654 µM; in the test on OPM-2, 0.0442 µM.
As to `CC(=O)O[C@H]1C(=O)[C@@]2(C)[C@H]([C@H](OC(=O)c3ccccc3)[C@]3(O)C[C@H](OC(=O)[C@H](O)[C@@H](NC(=O)c4ccccc4)c4ccccc4)C(C)=C1C3(C)C)[C@]1(OC(C)=O)CO[C@@H]1C[C@@H]2O` [PACLITAXEL], the half-maximal inhibitory concentration (IC50) is over 0.102 µM in the test with NCI-H1694; over 0.102 µM with SNU-C1; over 0.102 µM in the test on NCI-H716; 0.0177 µM with NCCIT; 0.0642 µM with NCI-H1882; 0.0464 µM in the test on L-540. For the same compound, the IC50 is over 0.102 µM with SK-MM-2, 0.0313 µM with NCI-H1963, 0.0353 µM in the test with NCI-H524 and 0.0367 µM with OPM-2.
In the case of `N[C@@H](CSC(c1ccccc1)(c1ccccc1)c1ccccc1)C(=O)O` [S-TRITYL-L-CYSTEINE], the IC50 is over 5.12 µM in the test on NCI-H1694; over 5.12 µM with SNU-C1; over 5.12 µM in the test with NCI-H716; 2.39 µM in the test on NCCIT; 2.08 µM with NCI-H1882; over 5.12 µM in the test on L-540. For the same compound, the half-maximal inhibitory concentration (IC50) with SK-MM-2 is over 5.12 µM; in the test with NCI-H1963, 1.15 µM; in the test with NCI-H524, 1.03 µM; in the test with OPM-2 it was 3.29 µM.
With `CC[C@H](CO)Nc1nc(NCc2ccccc2)c2ncn(C(C)C)c2n1` [SELICICLIB], the IC50 in the test on NCI-H1694 was over 16 µM; in the test with SNU-C1, over 16 µM; in the test with NCI-H716, over 16 µM; in the test on NCCIT it was 7.55 µM; with NCI-H1882, over 16 µM; in the test on L-540, over 16 µM. In addition, the concentration for half-maximal inhibition (IC50) in the test with SK-MM-2, in the test with NCI-H1963, with NCI-H524 and in the test on OPM-2 was over 16 µM each time.
Turning to `CCN(CC)CCNC(=O)c1c(C)[nH]c(/C=C2\C(=O)Nc3ccc(F)cc32)c1C` [SUNITINIB], the IC50 with NCI-H1694, in the test on SNU-C1, in the test with NCI-H716, in the test with NCCIT, in the test on NCI-H1882 and in the test with L-540 was over 8 µM each time. For the same compound, the IC50 in the test on SK-MM-2 is 5.48 µM; in the test with NCI-H1963 it was over 8 µM; with NCI-H524, over 8 µM; in the test on OPM-2 it was 3.06 µM.

The values above are taken from ChEMBL document CHEMBL1201861, “Genomics of Drug Sensitity in Cancer screening data, Wellcome Trust Sanger Institute”.
